From publication PMC7816853, “Overexpression of the chloroplastic 2-oxoglutarate/malate transporter disturbs carbon and nitrogen homeostasis in rice” (Journal of Experimental Botany, 2020)

Molecular target: T1, ZmOMT1 (Zea mays, UniProt Q768R5)
T1 construct: gene ZmpOMT1; full-length CDS with C-terminal AcV5 tag kept; expressed in transgenic rice (Oryza sativa indica IR64) leaf mesophyll; total leaf membrane protein reconstituted into liposomes; calculated ~60 kDa, 40 kDa on blot
T1 sequence (Q768R5 81-578): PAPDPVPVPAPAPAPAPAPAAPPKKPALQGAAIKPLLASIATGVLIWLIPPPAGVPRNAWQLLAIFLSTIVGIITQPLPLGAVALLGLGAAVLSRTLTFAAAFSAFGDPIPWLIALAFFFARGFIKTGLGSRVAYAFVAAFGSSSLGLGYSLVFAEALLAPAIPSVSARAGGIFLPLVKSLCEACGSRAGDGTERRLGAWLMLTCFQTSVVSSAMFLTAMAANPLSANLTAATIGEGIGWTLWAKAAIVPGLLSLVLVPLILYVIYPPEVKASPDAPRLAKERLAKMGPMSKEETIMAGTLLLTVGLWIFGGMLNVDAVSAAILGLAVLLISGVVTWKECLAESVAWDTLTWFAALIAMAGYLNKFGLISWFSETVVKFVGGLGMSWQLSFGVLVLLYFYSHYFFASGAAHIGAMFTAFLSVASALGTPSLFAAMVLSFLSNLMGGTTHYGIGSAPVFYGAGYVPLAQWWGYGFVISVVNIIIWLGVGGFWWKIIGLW
Assay: […]malate uptake into proteoliposomes, malate/malate counterexchange
Type: biochemical
Settings: pH 7.5; 30 mM malate preloaded inside; 0.3 mM external [14C]malate; total leaf membrane protein of transgenic rice versus wild type (native rice transporters present); labelled compound

## O=C(O)C[C@H](O)C(=O)O [malate]
  [14C]malate uptake into proteoliposomes, malate/malate counterexchange: significantly higher malate–malate counterexchange activity in liposomes reconstituted with membrane proteins from overexpression lines
